Series [1] has as its system HeLa cells. The series can be described thus: Endosomal escape enhancing activity: saponin titrated with fixed non-effective toxin conjugate, cell killing (MTS).
Procedure: (§1) Cell viability was determined by an MTS-assay, performed according to the manufacturer's instruction (CellTiter 96® AQueous One Solution Cell Proliferation Assay, Promega). Briefly, the MTS solution was diluted 20× in DMEM without phenol red (PAN-Biotech GmbH) supplemented with 10% FBS (PAN-Biotech GmbH). The cells were washed once with 200 μL PBS per well, after which 100 μL diluted MTS solution was added per well. The plate was incubated for approximately 20-30 minutes at 37° C. […] For quantification the background signal of ‘medium only’ wells was subtracted from all other wells, before the ratio of untreated/treated cells was calculated, by dividing the background corrected signal of untreated wells over the background corrected signal of the treated wells.
Series [2] relates to HeLa cells. Kind of series: Toxicity of saponin alone, cell viability (MTS). The class given is cell-based. The conditions noted are these: for toxicity, comparison in words: HeLa and A431 cells, FIG. 4; for IC50: Homo sapiens, HeLa cells, saponin alone. The procedure: Next, toxicity was determined. […] SO1861-EMCH (blocked): the maleimide functional group is conjugated with mercapto-ethanol.

In series [3] the test system is A431 cells. The series can be described thus: Toxicity of saponin alone, cell viability (MTS). The class given is cell-based. The following applies: Homo sapiens, A-431.
Procedure: Cell viability was determined by an MTS-assay, performed according to the manufacturer's instruction (CellTiter 96® AQueous One Solution Cell Proliferation Assay, Promega). Briefly, the MTS solution was diluted 20× in DMEM without phenol red (PAN-Biotech GmbH) supplemented with 10% FBS (PAN-Biotech GmbH). The cells were washed once with 200 μL PBS per well, after which 100 μL diluted MTS solution was added per well. The plate was incubated for approximately 20-30 minutes at 37° C. Subsequently, the optical density at 492 nm was measured on a Thermo Scientific Multiskan FC plate reader (Thermo Scientific). For quantification the background signal of ‘medium only’ wells was subtracted from all other wells, before the ratio of untreated/treated cells was calculated, by dividing the background corrected signal of untreated wells over the background corrected signal of the treated wells.
In the next series the test system is Human Red blood cells. Kind of series: Hemolysis assay. The format is cell-based. The following applies: for hemolytic activity, comparison in words: fresh Human Red blood cells, FIG. 5.
Series [4] relates to A431 cells. Kind of series: Endosomal escape enhancing activity: saponin titrated with fixed non-effective toxin conjugate, cell killing (MTS).
Procedure: as §1
Setting [5] is: Homo sapiens, HeLa, read-out: IC50 nM (Activity; +5 pM EGFdianthin).
[6] abbreviates: Homo sapiens, A-431, read-out: IC50 nM (Activity; +5 pM EGFdianthin).

Procedure for Human Red blood cells: Red blood cells (RBCs) were isolated from a buffy coat using a Ficoll gradient. The obtained RBC pellet (→4-5 ml) was washed 2× with 50 ml DPBS (without Ca^2+/Mg^2+, PAN-Biotech GmbH). Cells were pelleted by centrifugation for 10 min, 800×g at RT. RBC were counted and resuspended at 500,000,000 c/ml in DPBS (without Ca^2+/Mg^2+), based on total cell count. […] For positive lysis control a 0.02% Triton-X100 solution was prepared in DPBS^+/+. Of all compound solutions 135 μl was dispensed/well in a 96 well V-bottom plate. To this 15 μl RBC suspension was added and mixed shortly (10 sec-600 rpm). The plate was incubated 30 min at RT, with gentle agitation. Afterwards the plate was spun for 10 min at 800×g to pellet the RBC and 100-120 μl supernatant was transferred to a standard 96 wp. Subsequently, the OD at 405 nm was measured on a Thermo Scientific Multiskan FC plate reader (Thermo Scientific). For quantification the background signal of ‘DPBS^+/+ only’ wells was subtracted from all other wells before the percentage of hemolysis was calculated in comparison to 0.02% Triton-X100, by dividing the background corrected signal of treated wells over the background corrected signal of the 0.02% Triton-X100 wells (×100).

Turning to `CC(=O)OC1C(C)OC(OC2C(C)OC(OC(=O)[C@]34CCC(C)(C)CC3C3=CCC5[C@@]6(C)CC[C@H](OC7OC(C(=O)O)C(O)C(OC8OCC(O)C(O)C8O)C7OC7OC(CO)C(O)C(O)C7O)CC6[C@@](C)(/C=N/NC(=O)CCOCCOCCOCCOCCN6N=NC7c8ccccc8CN(C(=O)CCC(=O)ON8C(=O)CCC8=O)c8ccccc8C76)C[C@@]5(C)[C@]3(C)C[C@H]4O)C(OC3OC(C)C(OC4OCC(O)C(OC5OC(CO)C(O)C(O)C5O)C4O)C(O)C3O)C2O)C(O)C1OC1OCC(O)C(O)C1O` (stereo partly drawn), the IC50 in the series on HeLa cells [1] (setting [5]) is 4000 nM; with HeLa cells [1] (read-out: IC50 (activity; +10 pM Cetuximab-saporin), HeLa cells, +10 pM Cetuximab-saporin), 2000 nM; in the series with HeLa cells [1] (read-out: IC50 (activity; +50 pM Trastuzumab-saporin), HeLa cells, +50 pM Trastuzumab-saporin) it was 3000 nM; in the series on HeLa cells [2], above 100 µM; in the series on A431 cells [3], above 30 µM; in the series on Human Red blood cells (Homo sapiens, Erythrocyte, red blood cells, Table 3) it was above 1000 µM. Further, the IC50 in the series with A431 cells [4] (setting [6]) was found to be 3000 nM; in the series on A431 cells [4] (read-out: IC50 (activity; +10 pM Cetuximab-saporin), A431 cells, +10 pM Cetuximab-saporin) it was 2000 nM. Further, in the series on HeLa cells [2], the “toxicity, comparison in words” value is on record as “comparable with the toxicity observed with SO1861-EMCH”. Moreover, in the series on Human Red blood cells, the “hemolytic activity, comparison in words” value is “comparable hemolytic activity”.

Turning to `CC(=O)OC1C(C)OC(OC2C(C)OC(OC(=O)[C@]34CCC(C)(C)CC3C3=CCC5[C@@]6(C)CC[C@H](OC7OC(C(=O)O)C(O)C(OC8OCC(O)C(O)C8O)C7OC7OC(CO)C(O)C(O)C7O)[C@@](C)(C=O)C6CC[C@@]5(C)[C@]3(C)C[C@H]4O)C(OC3OC(C)C(OC4OCC(O)C(OC5OC(CO)C(O)C(O)C5O)C4O)C(O)C3O)C2O)C(O)C1OC1OCC(O)C(O)C1O` (stereo partly drawn) [SO1861, reference compound], the “endosomal escape enhancing activity, comparison in words” value with HeLa cells [1] (HeLa and A431 cells, with EGFdianthin, Cetuximab-saporin or Trastuzumab-saporin, FIG. 1-3) is listed as “strongest activity”. For the same compound, the IC50 with HeLa cells [1] (setting [5]) was 500 nM; in the series on HeLa cells [2], 9 µM; in the series on A431 cells [4] (setting [6]), 300 nM. Moreover, in the series on HeLa cells [2], the “toxicity, comparison in words” value is on record as “strongest toxicity”.

Regarding `CC(=O)OC1C(C)OC(OC2C(C)OC(OC(=O)[C@]34CCC(C)(C)CC3C3=CCC5[C@@]6(C)CC[C@H](OC7OC(C(=O)O)C(O)C(OC8OCC(O)C(O)C8O)C7OC7OC(CO)C(O)C(O)C7O)[C@@](C)(/C=N/NC(=O)CCCCCN7C(=O)C=CC7=O)C6CC[C@@]5(C)[C@]3(C)C[C@H]4O)C(OC3OC(C)C(OC4OCC(O)C(OC5OC(CO)C(O)C(O)C5O)C4O)C(O)C3O)C2O)C(O)C1OC1OCC(O)C(O)C1O` (stereo partly drawn) [SO1861-EMCH, reference compound], the IC50 was 4000 nM in the series with HeLa cells [1] (setting [5]) and above 30 µM with A431 cells [3]. Also, in the series with Human Red blood cells, the “hemolytic activity, comparison in words” value was “comparable hemolytic activity”.

Values taken from US20240115726A1, “HYDRAZONE-BASED SAPONIN DERIVATIVES” (priority 2020, published 2024).
